Test results from article PMC9177418, “Global analysis of biosynthetic gene clusters reveals conserved and unique natural products in entomopathogenic nematode-symbiotic bacteria” (Nature Chemistry, 2022).

Columns and labels:
Assay type in all cases: biochemical
[1] = molecular target: T1, yeast 20S proteasome β5 subunit (chymotrypsin-like) (Saccharomyces cerevisiae, UniProt P30656); assay: X-ray crystal structure at […] Å; fluorogenic Suc-Leu-Leu-Val-Tyr-AMC inhibition assay with purified yCP
T1 construct: gene PRE2; purified yeast 20S proteasome core particle (yCP); with other subunits of the yeast 20S proteasome core particle (α1–7β1–7β1–7α1–7)
T1 sequence (P30656 76-287): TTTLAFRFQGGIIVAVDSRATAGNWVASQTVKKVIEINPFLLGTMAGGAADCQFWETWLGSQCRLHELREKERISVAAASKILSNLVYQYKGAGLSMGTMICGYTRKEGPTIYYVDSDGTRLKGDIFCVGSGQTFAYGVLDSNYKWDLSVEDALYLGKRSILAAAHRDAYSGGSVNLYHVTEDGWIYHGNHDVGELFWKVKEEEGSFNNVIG

[2] = molecular target: T2, yeast 20S proteasome β2 subunit (trypsin-like) (Saccharomyces cerevisiae, UniProt P25043); assay: X-ray crystal structure ([…] soak; ligand map diffuse at β[…]); fluorogenic inhibition assay with purified yCP
T2 construct: gene PUP1; purified yeast 20S proteasome core particle (yCP); with other subunits of the yeast 20S proteasome core particle (α1–7β1–7β1–7α1–7)
T2 sequence (P25043 30-261): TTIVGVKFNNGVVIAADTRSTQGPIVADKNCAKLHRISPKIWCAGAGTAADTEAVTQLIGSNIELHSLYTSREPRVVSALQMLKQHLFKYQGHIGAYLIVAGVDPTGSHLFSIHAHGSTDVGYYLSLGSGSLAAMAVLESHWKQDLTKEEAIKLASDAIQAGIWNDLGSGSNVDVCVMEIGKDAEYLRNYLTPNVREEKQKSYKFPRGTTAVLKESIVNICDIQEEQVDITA

[3] = molecular target: T3, yeast 20S proteasome β1 subunit (caspase-like) (Saccharomyces cerevisiae, UniProt P38624); assay: as above
T3 construct: gene PRE3; purified yeast 20S proteasome core particle (yCP); with other subunits of the yeast 20S proteasome core particle (α1–7β1–7β1–7α1–7)
T3 sequence (P38624 20-215): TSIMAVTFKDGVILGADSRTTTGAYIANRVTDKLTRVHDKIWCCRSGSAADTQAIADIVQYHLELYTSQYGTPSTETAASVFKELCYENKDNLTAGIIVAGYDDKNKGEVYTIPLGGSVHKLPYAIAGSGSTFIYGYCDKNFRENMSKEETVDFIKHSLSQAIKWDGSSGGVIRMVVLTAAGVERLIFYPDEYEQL

**Q.** What does the source list for `CC(C)[C@@H]1C(=O)O[C@H]1C(=O)O` [compound 1, 3-isopropyl-4-oxo-2-oxetanecarboxylic acid]?
**A.** IC50 [1]: 6.2 µM; IC50 [2]: 60 µM; IC50 [3]: 625 µM
